Tests used:
[1] = Time evolution of the photophysical properties in water; type: physicochemical; design: key to φ: fluorescence quantum yield, fraction (0.65 = 65%); conditions: for kfl / knr / εmax / λab / λfl / τ / φ: water
Protocol: Indeed, the fluorescence yield remains constant for 7 hours. However, due to the oligomerization of hydrolysis product 6 and to the ensuing precipitation of the resulting oligomers, fluorescence efficiency gradually decreases in 24 hours, although it maintains a quantum yield of 65%. […] Indeed, the diffusion of the dye outside of the cell organelle, which occurs in dyes not covalently bonded thereto, is one of the main problems in the development of fluorescent biological markers because it entails a significant reduction in fluorescent efficiency and, thus, in the accuracy and reproducibility of the experiments. The rational design of probe 4 must, therefore, prevent this loss of fluorescence signal and improve the quality and accuracy of the measurements, thereby enhancing its applicability as a biological probe.

[2] = system: HeLa; assay: Kinetics of cell labeling by flow cytometry; type: cell-based, human; conditions: 50 nM, staining times 5, 15 and 30 min
Protocol: (§1) The cell assays were carried out on two human cell lines: SCC38 and HeLa. The SCC38 line is derived from human laryngeal epidermoid carcinoma patients, while HeLa, the first human cell line established in culture, is derived from cervical cancer. The culture medium used for both cell lines was DMEM (Dulbecco's Modified Eagle's Medium) supplemented with 10% of fetal bovine serum (FBS), 100 U/mL of penicillin, 200 µg/mL of streptomycin, 100 µmol/L of non-essential amino acids and 2 mmol/L of glutamine. The cultures were incubated at 37 °C and 5% of CO2.
(§2) The kinetics of cell labeling with 4 was studied by flow cytometry with the SCC38 and HeLa cell lines, using MitoTracker® Red as a control marker, both at a concentration of 50 nM. The staining times studied were 5, 15, 30 and 45 minutes. After staining, the medium was removed, washed with PBS, trypsinized and the pellet was resuspended in 500 µL of PBS and introduced in the cytometer after filtration. A Beckman Coulter Cytomics FC500 Flow Cytometry Analyzer was used (Scientific-Technical Services, Universidad de Oviedo). Part of the resuspended cells were also plated and observed under the microscope.

[3] = system: SCC38; assay: Kinetics of cell labeling by flow cytometry; type: cell-based, human
Protocol: as §1, §2

SMILES: CC1=CC(C)=[N+]2C1=C(c1c(C)cc(C)cc1C)c1c(C)cc(C)n1[B-]21OC(=O)C[C@H](C[N+](C)(C)C)O1 (stereo partly drawn) [Compound 4]
- effect of hydrolysis on fluorescence emission ([1]; in water): does not entail a significant reduction in its fluorescence emission
- time for which the fluorescence yield remains constant ([1]; in water): 7 h
- quantum yield ([1]; in water, in 24 hours): 65%
- kfl ([1]; time 00:00 (hours:min)): 1.14 10^8s^-1
- knr ([1]; time 00:00 (hours:min)): 0.23 10^8s^-1
- εmax ([1]; time 00:00 (hours:min)): 3.8 10^4 M^-1 CM^-1
- λab ([1]; time 00:00 (hours:min)): 499 nm
- λfl ([1]; time 00:00 (hours:min)): 511 nm
- τ ([1]; time 00:00 (hours:min)): 7.30 ns
- φ ([1]; time 00:00 (hours:min)): 0.83
- kfl ([1]; time 00:10 (hours:min)): 1.14 10^8s^-1
- knr ([1]; time 00:10 (hours:min)): 0.24 10^8s^-1
- εmax ([1]; time 00:10 (hours:min)): 3.8 10^4 M^-1 CM^-1
- λab ([1]; time 00:10 (hours:min)): 498 nm
- λfl ([1]; time 00:10 (hours:min)): 511 nm
- τ ([1]; time 00:10 (hours:min)): 7.25 ns
- φ ([1]; time 00:10 (hours:min)): 0.82
- kfl ([1]; time 00:25 (hours:min)): 1.14 10^8s^-1
- knr ([1]; time 00:25 (hours:min)): 0.25 10^8s^-1
- εmax ([1]; time 00:25 (hours:min)): 3.8 10^4 M^-1 CM^-1
- λab ([1]; time 00:25 (hours:min)): 498 nm
- λfl ([1]; time 00:25 (hours:min)): 511 nm
- τ ([1]; time 00:25 (hours:min)): 7.20 ns
- φ ([1]; time 00:25 (hours:min)): 0.82
- kfl ([1]; time 00:50 (hours:min)): 1.16 10^8s^-1
- knr ([1]; time 00:50 (hours:min)): 0.24 10^8s^-1
- εmax ([1]; time 00:50 (hours:min)): 3.8 10^4 M^-1 CM^-1
- λab ([1]; time 00:50 (hours:min)): 498 nm
- λfl ([1]; time 00:50 (hours:min)): 509 nm
- τ ([1]; time 00:50 (hours:min)): 7.15 ns
- φ ([1]; time 00:50 (hours:min)): 0.83
- kfl ([1]; time 01:20 (hours:min)): 1.17 10^8s^-1
- knr ([1]; time 01:20 (hours:min)): 0.25 10^8s^-1
- εmax ([1]; time 01:20 (hours:min)): 3.8 10^4 M^-1 CM^-1
- λab ([1]; time 01:20 (hours:min)): 498 nm
- λfl ([1]; time 01:20 (hours:min)): 509 nm
- τ ([1]; time 01:20 (hours:min)): 7.05 ns
- φ ([1]; time 01:20 (hours:min)): 0.83
- kfl ([1]; time 02:00 (hours:min)): 1.18 10^8s^-1
- knr ([1]; time 02:00 (hours:min)): 0.25 10^8s^-1
- εmax ([1]; time 02:00 (hours:min)): 3.8 10^4 M^-1 CM^-1
- λab ([1]; time 02:00 (hours:min)): 497 nm
- λfl ([1]; time 02:00 (hours:min)): 509 nm
- τ ([1]; time 02:00 (hours:min)): 7.00 ns
- φ ([1]; time 02:00 (hours:min)): 0.83
- kfl ([1]; time 03:00 (hours:min)): 1.18 10^8s^-1
- knr ([1]; time 03:00 (hours:min)): 0.26 10^8s^-1
- εmax ([1]; time 03:00 (hours:min)): 3.8 10^4 M^-1 CM^-1
- λab ([1]; time 03:00 (hours:min)): 497 nm
- λfl ([1]; time 03:00 (hours:min)): 509 nm
- τ ([1]; time 03:00 (hours:min)): 6.95 ns
- φ ([1]; time 03:00 (hours:min)): 0.82
- kfl ([1]; time 04:00 (hours:min)): 1.19 10^8s^-1
- knr ([1]; time 04:00 (hours:min)): 0.26 10^8s^-1
- εmax ([1]; time 04:00 (hours:min)): 3.8 10^4 M^-1 CM^-1
- λab ([1]; time 04:00 (hours:min)): 497 nm
- λfl ([1]; time 04:00 (hours:min)): 509 nm
- τ ([1]; time 04:00 (hours:min)): 6.90 ns
- φ ([1]; time 04:00 (hours:min)): 0.82
- kfl ([1]; time 05:00 (hours:min)): 1.22 10^8s^-1
- knr ([1]; time 05:00 (hours:min)): 0.26 10^8s^-1
- εmax ([1]; time 05:00 (hours:min)): 3.8 10^4 M^-1 CM^-1
- λab ([1]; time 05:00 (hours:min)): 497 nm
- λfl ([1]; time 05:00 (hours:min)): 508 nm
- τ ([1]; time 05:00 (hours:min)): 6.80 ns
- φ ([1]; time 05:00 (hours:min)): 0.82
- kfl ([1]; time 06:00 (hours:min)): 1.23 10^8s^-1
- knr ([1]; time 06:00 (hours:min)): 0.26 10^8s^-1
- εmax ([1]; time 06:00 (hours:min)): 3.8 10^4 M^-1 CM^-1
- λab ([1]; time 06:00 (hours:min)): 496 nm
- λfl ([1]; time 06:00 (hours:min)): 508 nm
- τ ([1]; time 06:00 (hours:min)): 6.70 ns
- φ ([1]; time 06:00 (hours:min)): 0.83
- kfl ([1]; time 07:00 (hours:min)): 1.24 10^8s^-1
- knr ([1]; time 07:00 (hours:min)): 0.26 10^8s^-1
- εmax ([1]; time 07:00 (hours:min)): 3.8 10^4 M^-1 CM^-1
- λab ([1]; time 07:00 (hours:min)): 496 nm
- λfl ([1]; time 07:00 (hours:min)): 508 nm
- τ ([1]; time 07:00 (hours:min)): 6.65 ns
- φ ([1]; time 07:00 (hours:min)): 0.83
- kfl ([1]; time 24:00 (hours:min)): 1.03 10^8s^-1
- knr ([1]; time 24:00 (hours:min)): 0.54 10^8s^-1
- εmax ([1]; time 24:00 (hours:min)): 3.7 10^4 M^-1 CM^-1
- λab ([1]; time 24:00 (hours:min)): 496 nm
- λfl ([1]; time 24:00 (hours:min)): 507 nm
- τ ([1]; time 24:00 (hours:min)): 6.50 ns
- φ ([1]; time 24:00 (hours:min)): 0.65
- change of staining intensity with incubation time [2]: clearly increased in intensity with incubation time
- change of staining intensity with incubation time ([3]; SCC38, 50 nM, staining times 5, 15 and 30 min): clearly increased in intensity with incubation time
- labeling intensity at longer staining time ([3]; new cytometry experiment, 45 min versus 30 min, cell line not stated): even more intense than with a time of 30 minutes

From patent EP3650451A1, “COMPOUNDS AND THEIR USES AS FLUORESCENT PROBES” (Consejo Superior de Investigaciones Cientificas, priority 2017, dated 2019)
